The text below walks through data of US8951529B2, “Methods of using small compounds to enhance myeloid derived suppressor cell function for treating autoimmune diseases” (Icahn School of Medicine at Mount Sinai, priority 2009, dated 2015).

The test system of test [1] is MDSCs derived from TRIF KO mice. Conditions: OVA peptide, CD4 OVA TCR splenocytes, 5 days, FIG. 9D. Here is the method: TRIF is upstream of IRF-3. MDSCs derived from wild type or TRIF KO mice were cultured in the presence of OVA peptide and CD4 OVA TCR transgenic splenocytes for 5 days. Cells were stained with primary antibody specific for Foxp3, CD4 and CD25 and analyzed by flow cytometry.

Another test has as its system IBD. The following applies: GA alone, clinical studies discontinued; cited from earlier work.
In test [2] the test system is CD4+ HA-TCR transgenic splenocytes co-cultured with MDSCs. Briefly: IL-17A production by HA-stimulated splenocytes co-cultured with MDSCs (ELISA). The following applies: splenocytes:MDSCs 3:1, HA peptide, five days, FIG. 3B. Format: cell-based, mouse. Here is the method:
Because IL-23 (p40/p19) is essential for the Th17 response, the effects of MDSCs, in the presence of GA, SP600125, or both, on IL-17A expression by CD4+ HA-TCR transgenic splenocytes stimulated with HA peptides was determined. Splenocytes from CD4+ HA-TCR transgenic mice were co-cultured with irradiated MDSCs at the ratio of 3:1 in the presence of HA peptide and SP600125, GA, or a combination of both. Five days later, the culture supernatants were collected for the determination of IL-17A concentration by ELISA.

Another test relates to IRF-3. The following applies: MDSCs stimulated with LPS for 2 hours, FIG. 9C. An excerpt:
Actin was used as a loading control. Primary antibodies were anti-NFκB, anti-phospho-IRF3 (pIRF3), and anti-β-actin (Cell Signaling Technologies, Danvers, Mass.).

In test [3] the test system is Gr-1+CD115+ MDSCs. Nature of the test: MDSC differentiation assay (flow cytometry). The format is cell-based, mouse. The following applies: 24 hours culture, FIG. 4A. An excerpt: Gr-1+CD115+ MDSCs were sorted by MACS and cultured in the absence or presence of GA, SP600125, or both. Twenty-four hours later, viable cells were harvested and stained with anti-CD86, anti-CD80, anti-CD11c, anti-I-A, anti-F4/80, or isotype-matched control followed by flow cytometric analysis to assess MDSC differentiation.
To test whether differentiation of MDSCs can be inhibited or retarded by the treatment of GA, SP600125, or both, Gr-1+CD115+ MDSCs were sorted by MACS and cultured in the absence or presence of GA, SP600125, or both. Twenty-four (24) hours later, viable cells were harvested and stained with anti-CD86, anti-CD80, anti-CD11c, anti-I-A, anti-F4/80, or isotype-matched control followed by flow cytometric analysis. […] Treatment with GA or SP600125 impaired the spontaneous differentiation of MDSCs, as evidenced by the lower expressions of CD11c, MHC class II, co-stimulatory molecules, and F4/80.
Background: In flow cytometry, cells or beads pass a laser one at a time.

A further test relates to MDSCs. Nature of the test: Treg induction by MDSCs with or without LPS. Format: cell-based, mouse. The following applies: five days, FIG. 9A. An excerpt:
Five days later, cells were harvested and stained with anti-CD4-FITC+anti-CD25-APC+anti-Foxp3-PE or isotype controls followed by flow cytometry.

The test system of test [4] is Gr-1+CD115+ MDSCs. Briefly: Prolongation of Treg cell inducing activity of pre-treated MDSCs. Format: cell-based, mouse. The following applies: 96 hours pre-treatment, then 5 days co-culture, FIG. 4B. The protocol: It was further investigated whether the delay of MDSC differentiation correlated with the prolongation of the Treg cell inducing activity mediated by MDSCs. Purified Gr-1+CD115+ MDSCs from tumor-bearing mice were left non-treated or treated with SP600125, GA, or a combination of both for 0, 48, and 96 hours followed by co-culture with CD4 HA TCR transgenic for an additional 5 days. […] The percentages of Treg cell subpopulations were determined by flow cytometry.
In the absence of treatment with GA or SP00125, the Treg cell inducing activity of MDSCs gradually waned over the period of 4-day culture (FIG. 4B).

A further test has as its system normal CD115+ monocytes. Briefly: Normal monocyte assay: Treg induction in co-culture with normal monocytes. The format is cell-based, mouse. The following applies: monocytes:CD4 OTII TCR splenocytes 1:4, five days, FIG. 2. The text has this:
CD115+ MDSCs and normal CD115+ monocytes were isolated from the bone marrows of tumor-bearing and naive Balb/c mice, respectively, and were co-cultured with CD4 OTII TCR transgenic splenocytes at a ratio of 1:4 in the absence or presence of GA, SP600125, or both.
To verify whether the enhancement of suppressive activities (suppression of T-cell proliferation and Treg cell induction) by GA and SP600125 is specific to MDSCs, the Treg cell inducing activity of normal CD115+ monocytes from naive mice was analyzed in the presence of GA and SP600125.

On to “L-glutamic acid polymer with L-alanine, L-lysine and L-tyrosine, acetate (salt) [GA]”, for which the “MDSC-mediated Treg cell induction in the absence of TRIF” value in test [1] is listed as “cannot enhance”. Moreover, in the test on IBD, the “efficacy for treating IBD” value is recorded as “failed to treat IBD”. For the same substance, the IL-17A production result in test [2] was “decreased”. Also, the “IRF-3 activation induced by LPS” value with IRF-3 is listed as “inhibition”. The “spontaneous differentiation of MDSCs (CD11c, MHC class II, co-stimulatory molecules, F4/80)” value in the test with Gr-1+CD115+ MDSCs [3] is listed as “impaired”. Further, in the test on MDSCs (CD4+ HA TCR splenocytes), the “Treg cell induction by MDSCs without LPS” value stood at 11.1%. In the test on MDSCs (LPS 100 ng/mL), the “Treg cell induction by MDSCs with LPS” value amounted to 5.31%. Also, the “Treg cell inducing activity of treated MDSCs on day 4” value in the test on Gr-1+CD115+ MDSCs [4] was “still maintained a significant Treg cell inducing activity”. In the test on normal CD115+ monocytes, the “percentage of CD4+CD25+Foxp3+ Treg cells in the co-culture with normal monocytes” value is listed as “slightly increased”.
